Reference: US6656914B2, “Method for treating tumors caused by APC gene mutation with anthocyanins and cyanidin” (Board of Trustees of Michigan State University, priority 2000, dated 2003)
Entries after “also recorded” stand apart in the source; their conditions may differ. Marks after values point to notes of the source that are not given here.

Tested on: intestinal adenomas in Min mice (Apc^min/Apc^+)
Experiment: Intestinal tumorigenesis in Min mice fed treatment diets for 10 weeks (adenoma number and size)
Assay type: in vivo
Conditions: for Adenoma numbers in the small intestine, Distal / Adenoma numbers in the small intestine, Middle / Adenoma numbers in the small intestine, Proximal / Total Adenoma Diameter in the small intestine / Adenoma numbers in the small intestine, Total: 800 ppm anthocyanins; for Adenoma numbers in the small intestine, Distal / Adenoma numbers in the small intestine, Middle / Adenoma numbers in the small intestine, Proximal / Total Adenoma Diameter in the small intestine: 200 ppm cyanidin or 200 ppm sulindac in drinking water, or 20% cherries diet; for Adenoma numbers in the small intestine, Distal / Adenoma numbers in the small intestine, Middle / Adenoma numbers in the small intestine, Proximal / Total Adenoma Diameter in the small intestine / Adenoma numbers in the small intestine, Total / Colon Total adenoma Volume / Cecal Total adenoma Volume / Cecum adenoma Number / Colon adenoma Number / Mean Adenoma Diameter in the small intestine / Average number of solid tumors, Cecum / Average number of solid tumors, Colon / Average number of solid tumors, Total (cecum and colon): mean ± SEM; for Adenoma numbers in the small intestine, Total: 200 ppm cyanidin or 200 ppm sulindac in drinking water, or 20% freeze-dried cherries in diet; for Colon Total adenoma Volume / Cecal Total adenoma Volume / Cecum adenoma Number / Colon adenoma Number / Mean Adenoma Diameter in the small intestine / Average number of solid tumors, Cecum / Average number of solid tumors, Colon / Average number of solid tumors, Total (cecum and colon): same treatments; for Cecal Total adenoma Volume / Cecum adenoma Number / Colon adenoma Number / Mean Adenoma Diameter in the small intestine: different superscripts = significant differences (P < 0.05); for Average number of solid tumors, Cecum / Average number of solid tumors, Colon / Average number of solid tumors, Total (cecum and colon): three-dimensional raised tumors
Text: Forty-eight Min mice were randomly assigned to five treatment groups at 4-5 weeks of age and fed treatment diets for 10 weeks. The treatments were:
1) Modified AIN-93G control diet, 2) The control diet +800 ppm anthocyanins in drinking water, 3) The control diet+200 ppm cyanidin in drinking water, 4) The control diet+200 ppm sulindac in drinking water, 5) Modified control diet containing 20% freeze dried pitted tart cherries. Only mean diameter, not the number of adenomas in the small intestine was reduced by sulindac, whereas diameter was increased by cherry diet (p<0.05).
All research was conducted with approval of the Michigan State University, East Lansing, Mich., All-University Committee on animal use and care. Mice were housed in MSU Laboratory, Animal Resources maintained facilities. A colony of Min mice was maintained by crossing male Min mice (Apc^min/Apc^+) with normal adult C57BL/6J female mice. Mice were housed in a temperature and humidity-controlled room (20-22° C., 70%) with a 12-h light/dark cycle. At three weeks of age, mice were bled from the dorsal pedal vein (30 μL) for genotyping analysis to identify Apc^min/Apc^+ using polymerase chain reaction (PCR) analysis and subsequent gel electrophoresis analysis. Forty-eight Min mice identified were randomly assigned to five treatment groups (7 to 11 per treatment) at 4 or 5 weeks of age and fed treatment diets for 10 weeks. The treatments were:
1) Modified AIN-93G control diet and 50 ppm ascorbic acid in drinking water (n=11)
2) The control diet+50 ppm ascorbic acid and 800 ppm anthocyanins in drinking water (n=9)
3) The control diet+50 ppm ascorbic acid and 200 ppm cyanidin in drinking water (n=7)
4) The control diet+50 ppm ascorbic acid and 200 ppm sulindac in drinking water (n=10)
5) 20% freeze-dried cherries+50 ppm ascorbic acid in drinking water (n=11).
Ingredient composition of diets is in Table 1. All diets contained 22% protein, 15% fat (soybean oil) and 5% cellulose contents. Distilled water was used for drinking water. Ascorbic acid was added to provide low pH for keeping anthocyanins and cyanidin in solution since they are stable only under pH 7. The concentration of sulindac (200 ppm) was based on the effective range found from most studies that have shown sulindac to reduce intestinal neoplasia. Cyanidin concentration (200 ppm) was matched to that of sulindac. Anthocyanins was tested at the level four times the cyanidin concentration because anthocyanins are the glycosylated cyanidin and the level (800 ppm) has equivalent amount of flavylium cation. Red tart pitted cherries (Peerson Farms, Inc., Shelby, Mich.) were frozen, freeze-dried, ground using plate grinder, and then screened to pass a 1 mm screen before they were incorporated into the diet at the expense of sucrose, cornstarch and dyetrose. One hundred grams of the experimental diet included 23 g of ground cherries to make 20% of cherries in the diet because dry matter of cherries was 75%, whereas that of AIN-93G diet was 91%.
Body weight was measured once a week until mice were sacrificed at the end of treatment period. Upon sacrifice by carbon dioxide asphyxiation, the liver was removed and frozen immediately for confirmatory PCR analysis. The entire small intestine, cecum, and colon were removed from each mouse to determine the number and size of adenomas. The tissues were separated into the following sections: proximal one-third of small intestine, middle one-third of small intestine, distal one-third of small intestine, cecum, and colon. All intestinal sections were opened longitudinally, rinsed thoroughly with water, fixed overnight in 10% neutral-buffered formalin, and then stained with 0.2% methylene blue. Tumor number and size (diameter for flat tumors or volume in the case of three-dimensional tumors) were determined in each intestinal segment on 1 mm grid transparency by direct counting with the aid of a dissecting microscope. […]

SMILES	Adenoma numbers in the small intestine, Distal	Adenoma numbers in the small intestine, Middle	Adenoma numbers in the small intestine, Proximal	Total Adenoma Diameter in the small intestine [mm]	Adenoma numbers in the small intestine, Total	Colon Total adenoma Volume [mm^3]	Cecal Total adenoma Volume	Cecum adenoma Number	Colon adenoma Number	Mean Adenoma Diameter in the small intestine	Average number of solid tumors, Cecum	Average number of solid tumors, Colon	Average number of solid tumors, Total (cecum and colon)	Intestinal site of inhibited tumorigenesis (conclusion in words)	Number of cecal adenomas compared to controls (in words)	Size (volume) of adenomas in the cecum (in words)	Trend in number of adenoma in the proximal section of the small intestine (in words) (P=0.05)	Number of colonic adenomas (in words) (p<0.05)	Mean diameter (size) of adenoma in the small intestine, effect compared to control diet (in words) (p<0.05, listed as sulindac)	Number of colonic adenomas (in words) (p<0.05, listed as sulindac)
Oc1cc(O)c2cc(O)c(-c3ccc(O)c(O)c3)[o+]c2c1 [Cyanidin]	20.0 ± 7.8	15.7 ± 5.8	15.6 ± 3.5	67.4 ± 22.0	51.3 ± 15.8	3.51 ± 2.24	0.56 ± 0.96^b mm^3	0.57 ± 0.63^b	3.71 ± 0.80^ab	1.25 ± 0.11^b mm	0.00 ± 0.13	0.14 ± 0.21	0.14 ± 0.25	–	–	–	–	–	–	–
CC1=C(CC(=O)O)c2cc(F)ccc2/C1=C\c1ccc([S+](C)[O-])cc1 (stereo not drawn) [Sulindac, sulindac]	10.0 ± 6.5	9.1 ± 4.9	5.6 ± 2.9	23.5 ± 18.4	24.7 ± 13.2	3.35 ± 1.88	4.00 ± 0.81^a mm^3	4.00 ± 0.53^c	5.30 ± 0.67^b	0.93 ± 0.10^a mm	0.20 ± 0.11	0.20 ± 0.17	0.40 ± 0.21	inhibits small intestinal tumorigenesis	significantly more cecal adenomas than controls; also recorded: significantly higher number of cecal adenomas; also recorded: increased the number of adenomas in cecum and colon	increased	reduced	twice as many adenomas as those of mice in cherry diet	significantly reduced the size of adenomas in small intestine	greatest number of colonic adenomas; also recorded: increased the number of adenomas in cecum and colon
